Results as given in PubChem BioAssay (NCI).
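GI50 marks 50% less growth. TGI: concentration producing complete growth inhibition.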

Tests used:
Assay in all cases: NCI tumour cell line growth inhibition, 384-well format
A549 NSCLC = test system: A549 NSCLC
HCT-15 colon = test system: HCT-15 colon
MDA-MB-468 breast = test system: MDA-MB-468 breast
SR leukemia = test system: SR leukemia
SK-MEL-28 melanoma = test system: SK-MEL-28 melanoma
UACC-62 melanoma = test system: UACC-62 melanoma
MDA-MB-231 breast = test system: MDA-MB-231 breast
MDA-MB-435 melanoma = test system: MDA-MB-435 melanoma
CAKI-1 renal = test system: CAKI-1 renal
NCI/ADR-RES ovarian = test system: NCI/ADR-RES ovarian
SF-295 CNS = test system: SF-295 CNS
K-562 leukemia = test system: K-562 leukemia
HOP-92 NSCLC = test system: HOP-92 NSCLC
HS 578T breast = test system: HS 578T breast
SN12C renal = test system: SN12C renal
HOP-62 NSCLC = test system: HOP-62 NSCLC
T-47D breast = test system: T-47D breast
BT-549 breast = test system: BT-549 breast
IGROV1 ovarian = test system: IGROV1 ovarian
SW-620 colon = test system: SW-620 colon
OVCAR-4 ovarian = test system: OVCAR-4 ovarian
NCI-H322M lung = test system: NCI-H322M lung
HT29 colon = test system: HT29 colon
MCF7 breast = test system: MCF7 breast
OVCAR-3 ovarian = test system: OVCAR-3 ovarian
COLO 205 colon = test system: COLO 205 colon
SNB-19 CNS = test system: SNB-19 CNS
NCI-H522 lung = test system: NCI-H522 lung
RXF 393 renal = test system: RXF 393 renal
LOX IMVI melanoma = test system: LOX IMVI melanoma
TK-10 renal = test system: TK-10 renal
M14 melanoma = test system: M14 melanoma
MOLT-4 leukemia = test system: MOLT-4 leukemia
DU-145 prostate = test system: DU-145 prostate
U251 glioblastoma = test system: U251 glioblastoma
PC-3 prostate = test system: PC-3 prostate
OVCAR-8 ovarian = test system: OVCAR-8 ovarian
MALME-3M melanoma = test system: MALME-3M melanoma
UACC-257 melanoma = test system: UACC-257 melanoma
HL-60(TB) leukemia = test system: HL-60(TB) leukemia
NCI-H460 NSCLC = test system: NCI-H460 NSCLC
CCRF-CEM leukemia = test system: CCRF-CEM leukemia
KM12 colon = test system: KM12 colon
OVCAR-5 ovarian = test system: OVCAR-5 ovarian
NCI-H226 lung = test system: NCI-H226 lung
NCI-H23 lung = test system: NCI-H23 lung
SK-MEL-5 melanoma = test system: SK-MEL-5 melanoma
SK-OV-3 ovarian = test system: SK-OV-3 ovarian
RPMI-8226 leukemia = test system: RPMI-8226 leukemia
ACHN renal = test system: ACHN renal
UO-31 renal = test system: UO-31 renal
SF-268 CNS = test system: SF-268 CNS
EKVX NSCLC = test system: EKVX NSCLC
A498 renal = test system: A498 renal
SNB-75 CNS = test system: SNB-75 CNS
HCC-2998 colon = test system: HCC-2998 colon
SF-539 CNS = test system: SF-539 CNS
786-0 renal = test system: 786-0 renal
HCT-116 colon = test system: HCT-116 colon

Cc1cc(Nc2cc(CN3CCOCC3)c3nc(C)c(Cc4ccc(Cl)cc4F)n3n2)n[nH]1
GI50 (A549 NSCLC): 772 nM
TGI (A549 NSCLC): 3350 nM
GI50 (HCT-15 colon): 1110 nM
TGI (HCT-15 colon): 12000 nM
GI50 (MDA-MB-468 breast): 271 nM
TGI (MDA-MB-468 breast): 535 nM
GI50 (SR leukemia): 166 nM
TGI (SR leukemia): 312 nM
GI50 (SK-MEL-28 melanoma): 2390 nM
TGI (SK-MEL-28 melanoma): 15000 nM
GI50 (UACC-62 melanoma): 1230 nM
TGI (UACC-62 melanoma): 2990 nM
GI50 (MDA-MB-231 breast): 1070 nM
TGI (MDA-MB-231 breast): 3020 nM
GI50 (MDA-MB-435 melanoma): 563 nM
TGI (MDA-MB-435 melanoma): 15100 nM
GI50 (CAKI-1 renal): 1030 nM
TGI (CAKI-1 renal): 2240 nM
GI50 (NCI/ADR-RES ovarian): 2520 nM
TGI (NCI/ADR-RES ovarian): 7880 nM
GI50 (SF-295 CNS): 1210 nM
TGI (SF-295 CNS): 2700 nM
GI50 (K-562 leukemia): 380 nM
TGI (K-562 leukemia): 1360 nM
GI50 (HOP-92 NSCLC): 554 nM
TGI (HOP-92 NSCLC): 2560 nM
GI50 (HS 578T breast): 586 nM
TGI (HS 578T breast): 1810 nM
GI50 (SN12C renal): 730 nM
TGI (SN12C renal): 9250 nM
GI50 (HOP-62 NSCLC): 1050 nM
TGI (HOP-62 NSCLC): 2950 nM
GI50 (T-47D breast): 855 nM
TGI (T-47D breast): 14000 nM
GI50 (BT-549 breast): 842 nM
TGI (BT-549 breast): 2780 nM
GI50 (IGROV1 ovarian): 1690 nM
TGI (IGROV1 ovarian): 3360 nM
GI50 (SW-620 colon): 671 nM
TGI (SW-620 colon): 8260 nM
GI50 (OVCAR-4 ovarian): 874 nM
TGI (OVCAR-4 ovarian): 5880 nM
GI50 (NCI-H322M lung): 1710 nM
TGI (NCI-H322M lung): 4680 nM
GI50 (HT29 colon): 1730 nM
TGI (HT29 colon): 16100 nM
GI50 (MCF7 breast): 894 nM
TGI (MCF7 breast): 6570 nM
GI50 (OVCAR-3 ovarian): 825 nM
TGI (OVCAR-3 ovarian): 2960 nM
GI50 (COLO 205 colon): 418 nM
TGI (COLO 205 colon): 1660 nM
GI50 (SNB-19 CNS): 1850 nM
TGI (SNB-19 CNS): 4250 nM
GI50 (NCI-H522 lung): 366 nM
TGI (NCI-H522 lung): 1110 nM
GI50 (RXF 393 renal): 612 nM
TGI (RXF 393 renal): 2360 nM
GI50 (LOX IMVI melanoma): 868 nM
TGI (LOX IMVI melanoma): 2130 nM
GI50 (TK-10 renal): 1950 nM
TGI (TK-10 renal): 4720 nM
GI50 (M14 melanoma): 1740 nM
TGI (M14 melanoma): 11800 nM
GI50 (MOLT-4 leukemia): 162 nM
TGI (MOLT-4 leukemia): 336 nM
GI50 (DU-145 prostate): 1020 nM
TGI (DU-145 prostate): 3000 nM
GI50 (U251 glioblastoma): 1200 nM
TGI (U251 glioblastoma): 2750 nM
GI50 (PC-3 prostate): 2200 nM
TGI (PC-3 prostate): 13700 nM
GI50 (OVCAR-8 ovarian): 1370 nM
TGI (OVCAR-8 ovarian): 3650 nM
GI50 (MALME-3M melanoma): 1490 nM
TGI (MALME-3M melanoma): 9790 nM
GI50 (UACC-257 melanoma): 5450 nM
TGI (UACC-257 melanoma): 20600 nM
GI50 (HL-60(TB) leukemia): 302 nM
TGI (HL-60(TB) leukemia): 670 nM
GI50 (NCI-H460 NSCLC): 356 nM
TGI (NCI-H460 NSCLC): 1030 nM
GI50 (CCRF-CEM leukemia): 276 nM
TGI (CCRF-CEM leukemia): 604 nM
GI50 (KM12 colon): 37.8 nM
TGI (KM12 colon): 1470 nM
GI50 (OVCAR-5 ovarian): 1060 nM
TGI (OVCAR-5 ovarian): 3580 nM
GI50 (NCI-H226 lung): 324 nM
TGI (NCI-H226 lung): 2080 nM
GI50 (NCI-H23 lung): 578 nM
TGI (NCI-H23 lung): 2570 nM
GI50 (SK-MEL-5 melanoma): 693 nM
TGI (SK-MEL-5 melanoma): 5820 nM
GI50 (SK-OV-3 ovarian): 1230 nM
TGI (SK-OV-3 ovarian): 3380 nM
GI50 (RPMI-8226 leukemia): 205 nM
TGI (RPMI-8226 leukemia): 516 nM
GI50 (ACHN renal): 1270 nM
TGI (ACHN renal): 7950 nM
GI50 (UO-31 renal): 1440 nM
TGI (UO-31 renal): 2880 nM
GI50 (SF-268 CNS): 439 nM
TGI (SF-268 CNS): 1620 nM
GI50 (EKVX NSCLC): 1580 nM
TGI (EKVX NSCLC): 8090 nM
GI50 (A498 renal): 724 nM
TGI (A498 renal): 3290 nM
GI50 (SNB-75 CNS): 812 nM
TGI (SNB-75 CNS): 2350 nM
GI50 (HCC-2998 colon): 1130 nM
TGI (HCC-2998 colon): 2390 nM
GI50 (SF-539 CNS): 1080 nM
TGI (SF-539 CNS): 2450 nM
GI50 ([…]-0 renal): 688 nM
TGI (786-0 renal): 2320 nM

S=c1nc[nH]c2nc[nH]c12
GI50 (A549 NSCLC): 5600 nM
TGI (A549 NSCLC): 57100 nM
GI50 (HCT-15 colon): 4730 nM
GI50 (MDA-MB-468 breast): 150 nM
TGI (MDA-MB-468 breast): 416 nM
GI50 (SK-MEL-28 melanoma): 15400 nM
TGI (SK-MEL-28 melanoma): 99600 nM
GI50 (UACC-62 melanoma): 876 nM
GI50 (MDA-MB-231 breast): 395 nM
TGI (MDA-MB-231 breast): 1860 nM
GI50 (HCT-116 colon): 1800 nM
GI50 (MDA-MB-435 melanoma): 729 nM
GI50 (CAKI-1 renal): 1570 nM
TGI (CAKI-1 renal): 5450 nM
GI50 (NCI/ADR-RES ovarian): 2060 nM
TGI (NCI/ADR-RES ovarian): 8770 nM
GI50 (SF-295 CNS): 1130 nM
TGI (SF-295 CNS): 3710 nM
GI50 (K-562 leukemia): 334 nM
TGI (K-562 leukemia): 950 nM
GI50 (HOP-92 NSCLC): 301 nM
GI50 (HS 578T breast): 473 nM
TGI (HS 578T breast): 3380 nM
GI50 (SN12C renal): 2430 nM
TGI (SN12C renal): 19400 nM
GI50 (HOP-62 NSCLC): 219 nM
TGI (HOP-62 NSCLC): 592 nM
GI50 (T-47D breast): 423 nM
GI50 (BT-549 breast): 482 nM
TGI (BT-549 breast): 2300 nM
GI50 (IGROV1 ovarian): 3630 nM
GI50 (SW-620 colon): 4150 nM
GI50 (NCI-H322M lung): 1060 nM
TGI (NCI-H322M lung): 7280 nM
GI50 (HT29 colon): 1890 nM
GI50 (MCF7 breast): 272 nM
TGI (MCF7 breast): 10200 nM
GI50 (OVCAR-3 ovarian): 168 nM
TGI (OVCAR-3 ovarian): 389 nM
GI50 (SNB-19 CNS): 11300 nM
TGI (SNB-19 CNS): 37000 nM
GI50 (NCI-H522 lung): 299 nM
TGI (NCI-H522 lung): 1770 nM
GI50 (RXF 393 renal): 241 nM
TGI (RXF 393 renal): 1160 nM
GI50 (LOX IMVI melanoma): 206 nM
TGI (LOX IMVI melanoma): 481 nM
GI50 (TK-10 renal): 437 nM
TGI (TK-10 renal): 2190 nM
GI50 (M14 melanoma): 306 nM
GI50 (MOLT-4 leukemia): 151 nM
TGI (MOLT-4 leukemia): 318 nM
GI50 (U251 glioblastoma): 3300 nM
GI50 (PC-3 prostate): 2400 nM
GI50 (OVCAR-8 ovarian): 1480 nM
TGI (OVCAR-8 ovarian): 5930 nM
GI50 (MALME-3M melanoma): 494 nM
TGI (MALME-3M melanoma): 3140 nM
GI50 (UACC-257 melanoma): 2040 nM
GI50 (HL-60(TB) leukemia): 357 nM
TGI (HL-60(TB) leukemia): 1840 nM
GI50 (CCRF-CEM leukemia): 1420 nM
TGI (CCRF-CEM leukemia): 3000 nM
GI50 (KM12 colon): 1330 nM
GI50 (OVCAR-5 ovarian): 1250 nM
TGI (OVCAR-5 ovarian): 2800 nM
GI50 (NCI-H226 lung): 294 nM
TGI (NCI-H226 lung): 11900 nM
GI50 (NCI-H23 lung): 576 nM
TGI (NCI-H23 lung): 5860 nM
GI50 (SK-OV-3 ovarian): 569 nM
GI50 (RPMI-8226 leukemia): 289 nM
TGI (RPMI-8226 leukemia): 1280 nM
GI50 (ACHN renal): 1830 nM
TGI (ACHN renal): 6910 nM
GI50 (UO-31 renal): 1860 nM
TGI (UO-31 renal): 5230 nM
GI50 (SF-268 CNS): 1110 nM
TGI (SF-268 CNS): 2800 nM
GI50 (EKVX NSCLC): 53900 nM
GI50 (A498 renal): 10600 nM
TGI (A498 renal): 96700 nM
GI50 (SNB-75 CNS): 217 nM
TGI (SNB-75 CNS): 5130 nM
GI50 (SF-539 CNS): 481 nM
TGI (SF-539 CNS): 2910 nM
GI50 ([…]-0 renal): 468 nM
TGI (786-0 renal): 2200 nM
